Data as given in PubChem BioAssay AID330 (DTP/NCI, 2004).
“And” between values parts separate entries of the source, which are not always exact repeats. Identical values can stand only once. Toxic doses and inconclusive results are not listed. The calls were made as follows: active = survival T/C of 150% or more; inactive = T/C below 125% in these data.

Tested on: P388 leukemia ip, CD2F1 mice, survival T/C
Test: NCI In Vivo Anticancer Drug Screen. Data for tumor model P388 Leukemia (intraperitoneal) in CD2F1 (CDF1) mice
Details: endpoint: median survival time, higher = longer survival
Procedure, shortened: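 Mice carrying the transplanted tumor received test compound or vehicle. Survival was recorded in each group, and the value is the treated-group measurement divided by that of the vehicle-treated control group.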

[1] = dose: 50.0 mg/kg/injection, schedule: Q01DX005 (ip), vehicle: saline with Tween-80
[2] = dose: 100.0 mg/kg/injection, schedule: Q01DX005 (ip), vehicle: saline with Tween-80
[3] = dose: 200.0 mg/kg/injection, schedule: Q01DX005 (ip), vehicle: saline with Tween-80
[4] = dose: 12.5 mg/kg/injection, schedule: Q04DX003 (ip), vehicle: saline with Tween-80
[5] = dose: 25.0 mg/kg/injection, schedule: Q04DX003 (ip), vehicle: saline with Tween-80
[6] = dose: 50.0 mg/kg/injection, schedule: Q01DX009 (ip), vehicle: Klucel (hydroxypropylcellulose) (HPC)
[7] = dose: 100.0 mg/kg/injection, schedule: Q01DX009 (ip), vehicle: Klucel (hydroxypropylcellulose) (HPC)
[8] = dose: 200.0 mg/kg/injection, schedule: Q01DX009 (ip), vehicle: Klucel (hydroxypropylcellulose) (HPC)

Measured: T/C

CC(=O)c1cnn(C(N)=O)c1C
inactive: dose: 15.0 mg/kg/injection, schedule: Q01DX005 (ip), vehicle: Klucel (hydroxypropylcellulose) (HPC) 95 % of control and 96 % of control | dose: 30.0 mg/kg/injection, schedule: Q01DX005 (ip), vehicle: Klucel (hydroxypropylcellulose) (HPC) 100 % of control and 102 % of control | dose: 60.0 mg/kg/injection, schedule: Q01DX005 (ip), vehicle: Klucel (hydroxypropylcellulose) (HPC) 101 % of control and 97 % of control | dose: 120.0 mg/kg/injection, schedule: Q01DX005 (ip), vehicle: Klucel (hydroxypropylcellulose) (HPC) 105 % of control and 96 % of control and 98 % of control | dose: 240.0 mg/kg/injection, schedule: Q01DX005 (ip), vehicle: Klucel (hydroxypropylcellulose) (HPC) 107 % of control

CC(=O)Oc1ccc([N+](=O)[O-])cc1[N+](=O)[O-]
inactive: dose: 6.25 mg/kg/injection, schedule: Q04DX002 (ip), vehicle: Klucel (hydroxypropylcellulose) (HPC) 97 % of control | dose: 12.5 mg/kg/injection, schedule: Q04DX002 (ip), vehicle: Klucel (hydroxypropylcellulose) (HPC) 103 % of control | dose: 25.0 mg/kg/injection, schedule: Q04DX002 (ip), vehicle: Klucel (hydroxypropylcellulose) (HPC) 100 % of control

CC(C)(C)C1NC(C(C)(C)C)N2C(C(C)(C)C)N12 (stereo not given)
inactive: dose: 100.0 mg/kg/injection, schedule: Q01DX001 (ip), vehicle: Klucel (hydroxypropylcellulose) (HPC) 100 % of control | dose: 200.0 mg/kg/injection, schedule: Q01DX001 (ip), vehicle: Klucel (hydroxypropylcellulose) (HPC) 90 % of control | dose: 400.0 mg/kg/injection, schedule: Q01DX001 (ip), vehicle: Klucel (hydroxypropylcellulose) (HPC) 102 % of control

c1ccc(/C2=N\OCCCOc3ccccc32)cc1
inactive: dose: 50.0 mg/kg/injection, schedule: Q01DX005 (ip), vehicle: Klucel (hydroxypropylcellulose) (HPC) 88 % of control | dose: 100.0 mg/kg/injection, schedule: Q01DX005 (ip), vehicle: Klucel (hydroxypropylcellulose) (HPC) 87 % of control | dose: 200.0 mg/kg/injection, schedule: Q01DX005 (ip), vehicle: Klucel (hydroxypropylcellulose) (HPC) 87 % of control

O=NN(c1ccccc1)c1ccccc1
inactive: dose: 50.0 mg/kg/injection, schedule: Q01DX009 (ip), vehicle: saline with Tween-80 101 % of control | dose: 100.0 mg/kg/injection, schedule: Q01DX009 (ip), vehicle: saline with Tween-80 100 % of control | dose: 200.0 mg/kg/injection, schedule: Q01DX009 (ip), vehicle: saline with Tween-80 98 % of control

C=CCOc1cc2c(cc1Cc1ccc3c(c1)OCO3)OCO2
inactive: [1] 100 % of control | [2] 100 % of control | [3] 103 % of control

Cc1cccc(Cl)c1NC1=NCCO1
inactive: dose: 6.25 mg/kg/injection, schedule: Q04DX003 (ip), vehicle: saline with Tween-80 95 % of control | [4] 95 % of control | [5] 100 % of control

c1ccc2c(c1)CCc1ccccc1C2NC1=NCCO1
inactive: [4] 90 % of control | [5] 90 % of control | dose: 50.0 mg/kg/injection, schedule: Q04DX003 (ip), vehicle: saline with Tween-80 86 % of control

O=C(NC(=O)c1ccccc1F)Nc1ccc(Cl)cc1
inactive: [6] 101 % of control | [7] 100 % of control | [8] 91 % of control

C[N+](C)(C)c1ccc(/C=C/[N+](=O)[O-])cc1
inactive: dose: 12.5 mg/kg/injection, schedule: Q01DX009 (ip), vehicle: saline with Tween-80 95 % of control | dose: 25.0 mg/kg/injection, schedule: Q01DX009 (ip), vehicle: saline with Tween-80 102 % of control

CC1=C(C(=O)CC(=O)C(=O)Nc2cc(Cl)c(Cl)cc2Cl)Sc2ccccc2N1
inactive: [1] 101 % of control | [2] 102 % of control | [3] 98 % of control

Cn1c([N+](=O)[O-])cnc1/C=N\N1CC(CN2CCOCC2)OC1=O (stereo not given)
inactive: dose: 50.0 mg/kg/injection, schedule: Q01DX009 (ip), vehicle: suspension in saline 100 % of control | dose: 100.0 mg/kg/injection, schedule: Q01DX009 (ip), vehicle: suspension in saline 100 % of control | dose: 200.0 mg/kg/injection, schedule: Q01DX009 (ip), vehicle: suspension in saline 100 % of control

CN(C)c1ccc(/C=N/Nc2nnc3c4ccccc4n(C)c3n2)cc1
inactive: dose: 12.5 mg/kg/injection, schedule: Q01DX005 (ip), vehicle: saline with Tween-80 91 % of control | dose: 25.0 mg/kg/injection, schedule: Q01DX005 (ip), vehicle: saline with Tween-80 97 % of control

O=C1CNC(=O)c2cc(N=Cc3ccccc3O)ccc2N1
inactive: dose: 100.0 mg/kg/injection, schedule: Q04DX003 (ip), vehicle: saline with Tween-80 111 % of control | dose: 200.0 mg/kg/injection, schedule: Q04DX003 (ip), vehicle: saline with Tween-80 114 % of control | dose: 400.0 mg/kg/injection, schedule: Q04DX003 (ip), vehicle: saline with Tween-80 104 % of control

COc1ccc(S(=O)(=O)NCCSSCCNS(=O)(=O)c2ccc(OC)cc2)cc1
inactive: [6] 91 % of control | [7] 93 % of control | [8] 94 % of control
